Assay results taken from US11566007B2, “Ras inhibitors” (Revolution Medicines, Inc., priority 2019, dated 2023).
Read-outs that look alike come from different tables or passages of the source.

Key:
[1] = test system: NCI-H358 (K-Ras G12C); experiment: CellTiter-Glo cell viability assay, NCI-H358; assay type: cell-based, human; conditions: NCI-H358, 5-day treatment, class symbols, read-out: Additional H358 Cell Viability assay data (K-Ras G12C, IC50)
How it was run: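 Four-parameter logistic fits were applied to luminescence data normalized against DMSO-treated wells. Readings were taken on day 5 following direct compound addition, after roughly 30 minutes at room temperature.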

[2] = molecular target: NRAS G12C (Homo sapiens (Human), UniProt P01111+P62937, G12C); experiment: Ras-Raf (BRAF RBD) disruption / FRET / MOA assay, NRAS G12C; assay type: biochemical; conditions: read-out: IC50* NRAS G12C FRET data
NRAS G12C, sequence (P01111 whole entry G12C): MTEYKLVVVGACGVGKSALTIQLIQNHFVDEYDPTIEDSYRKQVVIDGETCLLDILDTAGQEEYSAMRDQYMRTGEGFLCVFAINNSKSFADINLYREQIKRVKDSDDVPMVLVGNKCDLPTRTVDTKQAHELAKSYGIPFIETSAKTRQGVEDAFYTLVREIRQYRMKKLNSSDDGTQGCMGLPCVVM
NRAS G12C, sequence (P62937 whole entry): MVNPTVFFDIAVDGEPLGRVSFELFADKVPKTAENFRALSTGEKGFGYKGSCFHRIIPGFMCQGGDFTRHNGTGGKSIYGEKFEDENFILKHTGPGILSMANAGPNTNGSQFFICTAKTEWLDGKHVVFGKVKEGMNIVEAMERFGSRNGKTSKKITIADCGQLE
How it was run: (§1)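 Compound-driven ternary complex of nucleotide-loaded Ras with cyclophilin A, disrupting BRAF RBD binding. 10-point 3-fold dilution from 30 μM final, 3 h at 25° C, then anti-His Eu-W1024 (10 nM) and anti-GST allophycocyanin (50 nM) for 1.5 h. IC50 from TR-FRET ratio decrease versus DMSO.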

[3] = molecular target: KRAS G12S (Homo sapiens (Human), UniProt P01116+P62937, G12S); experiment: Ras-Raf (BRAF RBD) disruption / FRET / MOA assay, KRAS G12S; assay type: biochemical; conditions: Ras-Raf disruption/FRET/MOA assay; class symbols; read-out: KRAS G12S FRET data IC50
KRAS G12S, sequence (P01116-2 other isoform, or with tags, fused parts or gaps G12S): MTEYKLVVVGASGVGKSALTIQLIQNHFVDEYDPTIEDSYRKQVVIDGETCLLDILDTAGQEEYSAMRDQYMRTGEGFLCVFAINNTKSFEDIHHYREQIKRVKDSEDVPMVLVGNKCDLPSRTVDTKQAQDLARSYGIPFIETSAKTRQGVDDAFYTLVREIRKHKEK
KRAS G12S, sequence (P62937 whole entry): as the sequence (P62937 whole entry) above
How it was run: as §1

[4] = molecular target: KRAS WT (Homo sapiens (Human), UniProt P01116+P62937); experiment: Ras-Raf (BRAF RBD) disruption / FRET / MOA assay, KRAS WT; assay type: biochemical; conditions: read-out: IC50* KRAS WT FRET data
KRAS WT, sequence (P01116-2 other isoform, or with tags, fused parts or gaps): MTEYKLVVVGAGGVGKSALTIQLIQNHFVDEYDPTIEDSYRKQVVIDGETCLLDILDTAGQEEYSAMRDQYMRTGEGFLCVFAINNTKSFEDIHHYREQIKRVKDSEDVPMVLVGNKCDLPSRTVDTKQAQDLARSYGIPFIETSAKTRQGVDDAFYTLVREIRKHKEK
KRAS WT, sequence (P62937 whole entry): as the sequence (P62937 whole entry) above
How it was run: as §1

[5] = molecular target: KRAS G12V (Homo sapiens (Human), UniProt P01116+P62937, G12V); experiment: Ras-Raf (BRAF RBD) disruption / FRET / MOA assay, KRAS G12V; assay type: biochemical; conditions: read-out: IC50* KRAS G12V FRET data
KRAS G12V, sequence (P01116-2 other isoform, or with tags, fused parts or gaps G12V): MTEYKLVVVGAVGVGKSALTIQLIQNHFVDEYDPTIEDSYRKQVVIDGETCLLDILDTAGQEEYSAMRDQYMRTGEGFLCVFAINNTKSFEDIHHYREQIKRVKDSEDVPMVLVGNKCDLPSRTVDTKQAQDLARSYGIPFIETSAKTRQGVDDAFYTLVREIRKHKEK
KRAS G12V, sequence (P62937 whole entry): as the sequence (P62937 whole entry) above
How it was run: as §1

[6] = molecular target: KRAS G13D (Homo sapiens (Human), UniProt P01116+P62937, G13D); experiment: Ras-Raf (BRAF RBD) disruption / FRET / MOA assay, KRAS G13D; assay type: biochemical; conditions: read-out: IC50* KRAS G13D FRET data
KRAS G13D, sequence (P01116-2 other isoform, or with tags, fused parts or gaps G13D): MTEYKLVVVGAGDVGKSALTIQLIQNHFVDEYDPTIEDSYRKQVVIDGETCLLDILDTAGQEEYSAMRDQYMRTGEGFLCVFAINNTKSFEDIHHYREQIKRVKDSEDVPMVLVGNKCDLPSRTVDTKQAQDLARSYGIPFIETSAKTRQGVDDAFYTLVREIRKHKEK
KRAS G13D, sequence (P62937 whole entry): as the sequence (P62937 whole entry) above
How it was run: as §1

[7] = molecular target: KRAS G12D (Homo sapiens (Human), UniProt P01116+P62937, G12D); experiment: Ras-Raf (BRAF RBD) disruption / FRET / MOA assay, KRAS G12D; assay type: biochemical; conditions: Ras-Raf disruption/FRET/MOA assay; class symbols; read-out: KRAS G12D FRET data IC50
KRAS G12D, sequence (P01116-2 other isoform, or with tags, fused parts or gaps G12D): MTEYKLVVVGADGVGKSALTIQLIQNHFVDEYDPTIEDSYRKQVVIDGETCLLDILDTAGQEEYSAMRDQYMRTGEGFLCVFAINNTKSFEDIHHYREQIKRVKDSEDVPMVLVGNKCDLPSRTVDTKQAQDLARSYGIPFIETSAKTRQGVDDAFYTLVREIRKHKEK
KRAS G12D, sequence (P62937 whole entry): as the sequence (P62937 whole entry) above
How it was run: as §1

[8] = molecular target: K-Ras G12C (Homo sapiens (Human), UniProt P01116+P62937, G12C); experiment: Ras-Raf (BRAF RBD) disruption / FRET / MOA assay, KRAS G12C; assay type: biochemical; conditions: KRAS G12C; Ras-Raf disruption/FRET/MOA assay; read-out: IC50* KRAS G12C FRET data
K-Ras G12C, sequence (P01116-2 other isoform, or with tags, fused parts or gaps G12C): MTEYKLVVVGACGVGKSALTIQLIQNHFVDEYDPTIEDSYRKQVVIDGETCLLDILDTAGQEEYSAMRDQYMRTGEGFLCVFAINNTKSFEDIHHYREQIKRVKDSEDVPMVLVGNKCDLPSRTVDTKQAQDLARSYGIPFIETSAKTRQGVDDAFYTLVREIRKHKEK
K-Ras G12C, sequence (P62937 whole entry): as the sequence (P62937 whole entry) above
How it was run: as §1

[9] = molecular target: K-Ras G13C (Homo sapiens (Human), UniProt P01116+P62937, G13C); experiment: Ras-Raf (BRAF RBD) disruption / FRET / MOA assay, KRAS G13C; assay type: biochemical; conditions: KRAS G13C; Ras-Raf disruption/FRET/MOA assay; read-out: IC50* KRAS G13C FRET data
K-Ras G13C, sequence (P01116-2 other isoform, or with tags, fused parts or gaps G13C): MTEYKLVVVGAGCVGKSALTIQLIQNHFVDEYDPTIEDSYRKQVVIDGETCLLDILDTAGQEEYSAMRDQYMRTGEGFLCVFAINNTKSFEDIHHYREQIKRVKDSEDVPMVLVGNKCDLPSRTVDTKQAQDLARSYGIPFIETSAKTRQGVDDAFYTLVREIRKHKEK
K-Ras G13C, sequence (P62937 whole entry): as the sequence (P62937 whole entry) above
How it was run: as §1

Compound | IC50 [1] | IC50 [2] | IC50 [3] | IC50 [4] | IC50 [5] | IC50 [6] | IC50 [7] | IC50 [8] | IC50 [9] | IC50 ([1]; Homo sapiens, NCI-H358, 120 h)
CCn1c(-c2cccnc2[C@H](C)OC)c2c3cc(ccc31)-c1cccc(c1)C[C@H](NC(=O)[C@H](C(C)C)N(C)C(=O)[C@H]1CCN(C(=O)/C=C/CN3CC(OC)C3)C1)C(=O)N1CCC[C@H](N1)C(=O)OCC(C)(C)C2 (atropisomer, axis not shown) [Example A203] | > 1 µM | 1 to 10 µM | > 10 µM | > 10 µM | > 10 µM | > 10 µM | > 10 µM | 1 to 10 µM | > 10 µM | –
C=CC(=O)N1CC[C@H](C(=O)N(C)[C@H](C(=O)N[C@H]2Cc3ncc(n3C)-c3ccc4c(c3)c(c(-c3cccnc3[C@H](C)OC)n4CC)CC(C)(C)COC(=O)[C@@H]3CCCN(N3)C2=O)C(C)C)C1 (atropisomer, axis not shown) [Example A276] | – | 1 to 10 µM | > 10 µM | > 10 µM | > 10 µM | > 10 µM | > 10 µM | 1 to 10 µM | > 10 µM | > 1 µM
C=CC(=O)N1CC[C@H](C(=O)N(C)[C@H](C(=O)N[C@H]2Cc3nc(cs3)-c3ccc4c(c3)c(c(-c3cccnc3[C@H](C)OC)n4CC)CC(C)(C)C/C=C/[C@@H]3CCCN(N3)C2=O)C(C)C)C1 (atropisomer, axis not shown) [Example A286] | – | > 10 µM | > 10 µM | > 10 µM | > 10 µM | > 10 µM | > 10 µM | > 10 µM | > 10 µM | > 1 µM
C=CC(=O)N1CC[C@H](C(=O)N(C)[C@H](C(=O)N[C@H]2Cc3nc(cs3)-c3ccc4c(c3)c(c(-c3cccnc3[C@H](C)OC)n4CC)CC(C)(C)CCC[C@@H]3CCCN(N3)C2=O)C(C)C)C1 (atropisomer, axis not shown) [Example A288] | – | > 10 µM | > 10 µM | > 10 µM | > 10 µM | > 10 µM | > 10 µM | > 10 µM | > 10 µM | > 1 µM
C/C=C(\C)S(=O)(=O)N1CC[C@H](C(=O)N(C)[C@H](C(=O)N[C@H]2Cc3cccc(c3)-c3ccc4c(c3)c(c(-c3cccnc3[C@H](C)OC)n4CC)CC(C)(C)COC(=O)[C@@H]3CCCN(N3)C2=O)C(C)C)C1 (atropisomer, axis not shown) [Example A308] | – | > 10 µM | > 10 µM | > 10 µM | > 10 µM | > 10 µM | > 10 µM | > 10 µM | 1 to 10 µM | 0.1 to 1 µM
C=CC(=O)N1CC[C@H](C(=O)N(C2CC2)[C@H](C(=O)N[C@H]2Cc3cccc(c3)-c3ccc4c(c3)c(c(-c3cccnc3[C@H](C)OC)n4CC)CC(C)(C)COC(=O)[C@@H]3CCCN(N3)C2=O)C(C)C)C1 (atropisomer, axis not shown) [Example A398] | – | 1 to 10 µM | > 10 µM | 1 to 10 µM | 1 to 10 µM | > 10 µM | > 10 µM | 1 to 10 µM | 1 to 10 µM | 0.1 to 1 µM
C=CC(=O)N1CC[C@H](C(=O)N(C)[C@H](C(=O)N[C@H]2Cc3cccc(c3)-c3ccc4c(c3)c(c(-c3cccnc3[C@H](C)OC)n4CC)CC(C)(C)COC(=O)[C@@H]3CCCN(N3)C2=O)C(C)C)[C@@H]1C (atropisomer, axis not shown) [Example A480] | – | 1 to 10 µM | > 10 µM | > 10 µM | > 10 µM | > 10 µM | > 10 µM | 1 to 10 µM | 1 to 10 µM | > 1 µM
C=CC(=O)N1CC[C@H](C(=O)N(C)[C@H](C(=O)N[C@H]2Cn3cnc(n3)-c3ccc4c(c3)c(c(-c3cccnc3[C@H](C)OC)n4CC)CC(C)(C)COC(=O)[C@@H]3CCCN(N3)C2=O)C(C)C)C1 (atropisomer, axis not shown) [Example A506] | – | 0.1 to 1 µM | 1 to 10 µM | 1 to 10 µM | 1 to 10 µM | > 10 µM | > 10 µM | 0.1 to 1 µM | 1 to 10 µM | 0.1 to 1 µM
C=CC(=O)N1CC[C@H](C(=O)N(C)[C@H](C(=O)N[C@H]2Cc3cccc(c3)-c3ccc4c(c3)c(c(-c3cc(C5CCN(C)CC5)cnc3[C@H](C)OC)n4CC)CC(C)(C)COC(=O)[C@@H]3CCCN(N3)C2=O)C(C)C)C1 (atropisomer, axis not shown) [Example A516] | > 1 µM | 1 to 10 µM | > 10 µM | > 10 µM | > 10 µM | > 10 µM | > 10 µM | 1 to 10 µM | 1 to 10 µM | –
C=CC(=O)N1CC(OCC(C(=O)N[C@H]2Cc3cc(cc(C(F)F)c3)-c3ccc4c(c3)c(c(-c3cccnc3[C@H](C)OC)n4CC(F)(F)F)CC(C)(C)COC(=O)[C@@H]3CCCN(N3)C2=O)C(C)C)C1 (mixture of isomers) [Example A428] | – | > 10 µM | > 10 µM | > 10 µM | > 10 µM | > 10 µM | > 10 µM | > 10 µM | > 10 µM | > 1 µM
C=CC(=O)N1CC(OCC(C(=O)N[C@H]2Cc3cc(cc(C(F)F)c3)-c3ccc4c(c3)c(c(-c3cccnc3[C@H](C)OC)n4CC)CC(C)(C)COC(=O)[C@@H]3CCCN(N3)C2=O)C(C)C)C1 (mixture of isomers) [Example A450] | – | > 10 µM | > 10 µM | > 10 µM | > 10 µM | > 10 µM | > 10 µM | > 10 µM | > 10 µM | > 1 µM
C=CC(=O)N1CC(OCC(C(=O)N[C@H]2Cc3cccc(c3)-c3ccc4c(c3)c(c(-c3cccnc3[C@H](C)OC)n4CC)CC(C)(C)COC(=O)[C@@H]3CCCN(N3)C2=O)C(C)C)C1 (mixture of isomers) [Example A484] | – | 1 to 10 µM | > 10 µM | > 10 µM | > 10 µM | > 10 µM | > 10 µM | 0.1 to 1 µM | 1 to 10 µM | 0.1 to 1 µM
C=CC(=O)N1CCC(C(=O)N(C)[C@H](C(=O)N[C@H]2Cc3cc(O)cc(c3)-c3ccc4c(c3)c(c(-c3ccccc3CCOC)n4CC)CC(C)(C)c3coc(n3)[C@@H]3CCCN(N3)C2=O)C(C)C)C1 (single isomer, unassigned) [Example A231] | – | > 10 µM | > 10 µM | > 10 µM | > 10 µM | > 10 µM | > 10 µM | > 10 µM | > 10 µM | > 1 µM
C=CC(=O)N1CC[C@H](C(=O)N(C)[C@H](C(=O)N[C@H]2Cc3cccc(c3)-c3ccc4c(c3)c(c(-c3cnccc3[C@H](C)OC)n4CC)CC(C)(C)COC(=O)[C@@H]3CCCN(N3)C2=O)C(C)C)C1 [Example A122] | – | > 10 µM | > 10 µM | > 10 µM | > 10 µM | > 10 µM | > 10 µM | > 10 µM | > 10 µM | > 1 µM
C=CC(=O)N1CC[C@H](C(=O)N(C)[C@H](C(=O)N[C@H]2Cc3cc(O)cc(c3)-c3ccc4c(c3)c(c(-c3cccnc3CNC)n4CC)CC(C)(C)COC(=O)[C@@H]3CCCN(N3)C2=O)C(C)C)C1 [Example A137] | – | 0.1 to 1 µM | 1 to 10 µM | 1 to 10 µM | 1 to 10 µM | > 10 µM | > 10 µM | 0.1 to 1 µM | > 10 µM | > 1 µM
